Assay results: paper PMC9551276, “Design, synthesis and biological evaluation of novel orthosteric-allosteric ligands of the cannabinoid receptor type 2 (CB2R)” (Frontiers in Chemistry, 2022)

Key:
HMC3 cells = assay: MTT assay, HMC3 cell viability; assay type: cell-based, human
Protocol: FIGURE 7 MTT assay performed with different concentrations of JR64a. Data represent means ± S.E.M. from n = 3 independent experiments, performed in triplicate. Statistical analysis was performed by ordinary one-way ANOVA followed by Tukey’s multiple comparison test. ^# p < 0.05 vs. control.

hCB1R = biological target: T1, hCB1R (Homo sapiens, UniProt P21554); assay: [3H]CP55,940 radioligand displacement, CHO-K1 hCB1R membranes; assay type: binding; conditions: % [3H]CP55,940 bound, 1 nM radioligand, 2 h
T1 construct: expressed in transfected cells; host or cells: CHO-K1 (ATCC CCL-61) stably expressing hCB1R; membranes
T1 sequence (P21554 whole entry): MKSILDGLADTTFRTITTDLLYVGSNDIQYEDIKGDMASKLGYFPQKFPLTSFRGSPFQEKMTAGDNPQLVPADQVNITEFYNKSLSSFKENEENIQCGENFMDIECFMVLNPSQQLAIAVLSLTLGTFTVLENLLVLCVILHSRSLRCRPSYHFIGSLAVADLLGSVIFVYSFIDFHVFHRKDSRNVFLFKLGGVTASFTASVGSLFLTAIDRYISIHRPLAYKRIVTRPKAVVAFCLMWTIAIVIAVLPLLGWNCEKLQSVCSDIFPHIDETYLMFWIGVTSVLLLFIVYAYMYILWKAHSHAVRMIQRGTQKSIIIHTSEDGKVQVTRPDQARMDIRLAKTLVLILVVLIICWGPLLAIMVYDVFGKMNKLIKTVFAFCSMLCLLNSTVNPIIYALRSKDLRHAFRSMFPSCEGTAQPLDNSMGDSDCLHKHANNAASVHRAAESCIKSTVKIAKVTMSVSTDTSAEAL
Protocol: (§1) CHO-K1 cells were thawed, diluted in Tris buffer (50 mM Tris [pH 7.4]) and homogenized in a 1 ml hand-held homogenizer. hCB1R and hCB2R CHO-K1 cell membranes were collected by cavitation in a pressure cell, and sedimented by ultracentrifugation. Pellets were resuspended in TME buffer (50 mM Tris, 5 mM MgCl2, 1 mM EDTA [pH 7.4]), and protein concentration was measured via the Bradford method according to the manufacturer’s directions (Bio-Rad Laboratories, Mississauga, ON). […] Radioligand binding began with the addition of CHO-K1 cell membranes (25 µg protein per sample). Assays were performed for 120 min at 37°C and stopped by the addition of ice-cold Tris binding buffer (pH 7.4), followed by vacuum filtration using a 24-well sampling manifold (Brandel Cell Harvester; Brandel Inc., Gaithersburg, MD, United States ). Brandel GF/B filter paper was soaked with wash buffer at 4 °C for at least 24 h. Each filter paper was washed 6 times with a 1.2 ml aliquot of Tris-binding buffer (pH 7.4), then air-dried and submerged in 5 ml of scintillation fluid (Ultima Gold XR, PerkinElmer). Liquid scintillation spectrometry was used to quantify radioactivity.

hCB2R [1] = biological target: T2, hCB2R (Homo sapiens, UniProt P34972); assay: DiscoveRx PathHunter βarrestin2 recruitment; assay type: cell-based
T2 sequence (P34972 whole entry): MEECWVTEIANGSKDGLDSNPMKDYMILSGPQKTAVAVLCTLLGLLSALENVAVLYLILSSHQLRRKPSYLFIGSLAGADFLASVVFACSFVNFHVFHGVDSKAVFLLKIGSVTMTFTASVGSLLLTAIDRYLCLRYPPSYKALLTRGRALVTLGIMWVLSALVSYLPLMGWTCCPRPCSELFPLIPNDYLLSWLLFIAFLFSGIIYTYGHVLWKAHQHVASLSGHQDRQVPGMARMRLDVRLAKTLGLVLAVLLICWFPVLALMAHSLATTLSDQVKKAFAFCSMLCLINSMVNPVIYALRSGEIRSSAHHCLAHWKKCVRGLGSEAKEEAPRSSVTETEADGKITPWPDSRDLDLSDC
Protocol: βarrestin2 recruitment was quantified using the DiscoveRx PathHunter® assay. […] Detection solution was added to cells (DiscoveRx), and cells were incubated for 60 min at room temperature. Chemiluminescence was measured on a Cytation5 plate reader (top read, gain 200, integration time 10,000 ms).

hCB2R [2] = biological target: T2, hCB2R; assay: [3H]CP55,940 radioligand displacement, CHO-K1 hCB2R membranes; assay type: binding
Protocol: as §1, with “Assays were performed for 120 min at 37°C and stopped by the addition of ice-cold Tris binding buffer (pH 7.4), followed by vacuum filtration using a 24-well sampling manifold (Brandel Cell Harvester; Brandel Inc., Gaithersburg, MD, United States ).” left out

[3] = system: human microglial cells (HMC3); assay: IL-6 and IL-10 release (ELISA) in LPS/TNFα-stimulated HMC3 cells; assay type: cell-based
Protocol: The concentrations of pro-inflammatory (IL-6) and anti-inflammatory (IL-10) interleukins were determined by performing specific ELISA assays (MyBioSource, San Diego, CA, United States ) on collected culture media. Human microglial cells (HMC3) were exposed to pretreatment with test compounds for 1 h followed by stimulation with LPS (10 μg/ml)/TNFα (50 ng/ml) for 24 h. In competition experiments, the CB2R antagonist (SR144528, 1 μM) or the CB2R positive allosteric modulator (EC21a 1 or 10 μM) were administered 15 min before agonist administration.

hCB2R [4] = biological target: T2, hCB2R; assay: DiscoveRx HitHunter inhibition of FSK-stimulated cAMP accumulation; assay type: cell-based
Protocol: Inhibition of FSK-stimulated cAMP accumulation was measured using the DiscoveRx HitHunter assay.

Q: For `Cc1c(Br)cn(CCCCCCCn2c(=O)c(C(=O)NC3CCC(C)CC3)cc3cccnc32)c(=O)c1NC(=O)C1CCCCCC1` (stereo not drawn) [JR64a, 1-(7-(5-bromo-3-(cycloheptanecarboxamido)-4-methyl-2-oxopyridin-1(2H)-yl)heptyl)-N-(4-methylcyclohexyl)-2-oxo-1,2-dihydro-1,8-naphthyridine-3-carboxamide], which HMC3 cytotoxicity (HMC3 cells; 10 μM) is on record?
A: no relevant HMC3 cytotoxicity

Q: What about the “Decrease in cell viability” value (HMC3 cells; 25 μM) of the same molecule?
A: ~10%

Q: What about the “Cytotoxic effects in HMC3 cells” value (HMC3 cells; 1 and 10 μM) of the same molecule?
A: no relevant cytotoxic effects

Q: What about the “hCB1R E min (% CP55,940) ± S.E.M” value (hCB1R) of the same molecule?
A: 104 ± 4.7 % CP55,940

Q: What about the EC50 (hCB2R [1]) of the same molecule?
A: > 10000 nM

Q: And the “βarrestin2 recruitment E max (% CP55,940) ± S.E.M” value (hCB2R [1]; CHO-K1 hCB2R, 90 min)?
A: 45 ± 2.4 % CP55,940

Q: And the IC50 (hCB2R [2])?
A: 0.6 nM

Q: And the “hCB2R E min (% CP55,940) ± S.E.M” value (hCB2R [2]; % [3H]CP55,940 bound, 1 nM radioligand, 2 h)?
A: 20 ± 10.3 % CP55,940

Q: And the Anti-inflammatory properties ([3]; 10 μM, LPS/TNFα-stimulated HMC3)?
A: good anti-inflammatory properties

Q: What about the “Anti-inflammatory activity (IL-6 and IL-10 levels)” value ([3]; 10 or 25 μM, 1 h pretreatment, then LPS/TNFα 24 h) of the same molecule?
A: marked anti-inflammatory activity

Q: What about the “Anti-inflammatory activity after pretreatment with CB2R antagonist SR144528” value ([3]; SR144528 1 μM 15 min before agonist, LPS/TNFα 24 h) of the same molecule?
A: completely abolished

Q: And the melting point?
A: 121 °C (dec.)

Q: What about the EC50 (hCB2R [4]) of the same molecule?
A: 8.6 nM

Q: And the “Response in inhibition of FSK-stimulated cAMP accumulation” value (hCB2R [4]; CHO-K1 hCB2R)?
A: modest partial agonist activity

Q: And the “Inhibition of cAMP E max (% CP55,940) ± S.E.M” value (hCB2R [4]; CHO-K1 hCB2R, 10 µM FSK, 90 min)?
A: 38 ± 0.74 % CP55,940
